Results: PubChem BioAssay AID2743 (NMMLSC, 2010)
Values joined by “and” are separate entries in the source; they are usually repeats but may differ in a detail not shown here. Equal values may be shown once. Active and inactive are the calls of the source.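 How the source made its calls: active means fitted half-maximal concentration for change in GFP expression of 33 µM or less; inactive means the rest.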

Assay: concentration-dependent AGP1-GFP change, TOR pathway – cell-based, flow cytometry, S. cerevisiae, MLPCN hits, dose response (AID 2743)
Settings: S. cerevisiae AGP1-GFP strain, flow cytometry GFP, 3 h; at 33 µM (top of the series)

Compound	GFP fluorescence (kMESF)
Cc1cc(C)c(S(=O)(=O)N2CCC(C(=O)NCc3ccc(Cl)cc3Cl)CC2)c(C)c1	37.4 kMESF (inactive)
COc1ccc(C2=CC(=O)N(Nc3ccccc3)C2=O)cc1	39.9 kMESF (inactive)
CCN1C(=O)/C(=C\C(=O)c2cccs2)c2cc(Br)ccc21	45.3 kMESF (inactive)
O=C(COc1ccccc1)NNC(=S)NC(=O)c1ccc(Cl)cc1Cl	29.9 kMESF (inactive)
O=C1c2cccc3c([N+](=O)[O-])ccc(c23)C(=O)N1c1ccccn1	35.2 kMESF (inactive)
CCOC(=O)CS(=O)(=O)c1nc(-c2ccc(F)cc2)cc(C(F)(F)F)n1	50.7 kMESF (inactive)
O=c1oc2ccccc2c(O)c1[C@H]1c2ccc(O)cc2Oc2c1c(=O)oc1ccccc21	36.3 kMESF (inactive)
Cc1cc(NC(c2ccc(Cl)cc2)c2ccc3cccnc3c2O)no1 (stereo not given)	34 kMESF (inactive)
Nc1nc2ncc(CNc3ccc(C(=O)N[C@@H](CCC(=O)O)C(=O)O)cc3)nc2c(=O)[nH]1	29.1 kMESF (inactive)
O=C1CC(c2ccccc2)=NN1c1nc(-c2ccccc2)cs1	26 kMESF (inactive)
Cc1cc(C)nc(S/C=C/C(=O)c2ccccc2)n1	44.8 kMESF (inactive)
Cc1cccc(Nc2nc(-c3ccccn3)cs2)n1	30.1 kMESF (inactive)
CCc1sc(C(=O)Nc2nc(-c3ccccn3)cs2)cc1C	27.9 kMESF (inactive)
CC(Oc1cccc(Cl)c1)C(=O)Nc1nc(-c2ccccn2)cs1 (stereo not given)	50.7 kMESF (inactive)
CCOC(=O)c1ccc(N=Cc2nc(-c3ccccc3)oc2OC(C)=O)cc1	33.5 kMESF (inactive)
CN(O)/C=c1/ccc2c(n1)C(=O)C=CC=2	39.5 kMESF (inactive)
Cc1ccc(/C=c2\sc3nc(-c4cccs4)nn3c2=O)o1	42.1 kMESF (inactive)
O=C(/C=C/c1ccc(Br)cc1)NC(=S)NNC(=O)c1ccco1	36.3 kMESF (inactive)
N/C(Cc1ccc(Cl)cc1Cl)=N\OC(=O)c1cccs1	27.9 kMESF (inactive)
O=C1NC(=O)N(c2ccccc2)C(=O)/C1=C/c1ccc(Sc2ccccc2)o1	35.9 kMESF (inactive)
Cc1ccccc1[C@@]1(C)ON(c2ccccc2C(F)(F)F)C1=O	29.8 kMESF (inactive)
COc1ccccc1[C@@]1(C)ON(c2ccccc2C(F)(F)F)C1=O	30.9 kMESF (inactive)

Compound	GFP fluorescence (kMESF)
O=C(CCc1ccccc1)NNC(=S)NC(=O)c1ccccc1	50.8 kMESF (inactive)
COc1ccc(C(=O)/C=C2/C(=O)Nc3ccccc32)c(OC)c1	43.2 kMESF (inactive)
COc1cc(/C=C2/C(=O)ON=C2c2ccccc2)ccc1O	25 kMESF (inactive)
CCSc1nnc(NC(=O)c2ccccn2)s1	39.6 kMESF (inactive)
Oc1c(Br)cc(Br)cc1C=Nc1ccc2[nH]ncc2c1	37.5 kMESF (inactive)
O=c1oc(/C=C/c2ccc([N+](=O)[O-])s2)nc2ccccc12	37.9 kMESF (inactive)
Cc1ccc(NC(=O)c2nc(S(=O)(=O)Cc3ccccc3)ncc2Cl)cc1	45.8 kMESF (inactive)
O=C(O)C1Sc2[nH]c(=O)sc2C2c3cc(Br)ccc3OC(=O)C12 (stereo not given)	38.7 kMESF (inactive)
O=C(NNC(=S)NC(=O)c1ccco1)c1ccc(F)cc1	43.7 kMESF (inactive)
Cc1cccc(N2C(=O)C(Cl)=C(Nc3c(C)n(C)n(-c4ccccc4)c3=O)C2=O)c1C	43.3 kMESF (inactive)
CCCc1cc(N2CCN(c3ccccn3)CC2)n2nc(C)c(-c3ccccc3)c2n1	38.8 kMESF (inactive)
O=C(NC(=S)NNC(=O)[C@H]1C[C@@H]1c1ccccc1)c1cccc(F)c1	30.4 kMESF (inactive)
COc1cccc(/C=C2\C(=O)N(c3cccc(C)c3)C(=O)c3ccccc32)c1	45.3 kMESF (inactive)
O/C=c1\ccc2cccc3nc(C(F)(F)F)nc1c23	40.7 kMESF (inactive)
N/C(Cc1ccc(Cl)cc1)=N\OC(=O)c1ccccc1	23.8 kMESF (inactive)
ClC(Cl)(c1nnnn1-c1ccccc1)c1nnnn1-c1ccccc1	35.1 kMESF (inactive)
COc1ccc(N2C(=O)C(Cl)=C(NCc3ccccc3)C2=O)cc1	40.6 kMESF (inactive)
O=C(NOC(=O)c1ccccc1)c1ccccc1	25.9 kMESF (inactive)
CN(Cc1cnc2nc(N)nc(N)c2n1)c1ccc(C(=O)N[C@@H](CCC(=O)O)C(=O)O)cc1	45.5 kMESF (inactive) and 51.9 kMESF (inactive)
Oc1c(C(Nc2nc3ccccc3s2)c2ccco2)ccc2cccnc12 (stereo not given)	39.7 kMESF (inactive)
O=[N+]([O-])c1ccc(S(=O)(=O)c2cccc(C(F)(F)F)c2)nc1	37.7 kMESF (inactive)
c1ccc(-c2csc(Nc3cccnc3)n2)nc1	32.1 kMESF (inactive)

Compound	GFP fluorescence (kMESF)
Oc1cc(-c2ccc(N3CCCCC3)nc2)cc2cccnc12	31.5 kMESF (inactive)
O=[N+]([O-])c1cnc(Sc2ccncn2)s1	33.9 kMESF (inactive)
O=C(/C=C/c1ccc(Cl)c([N+](=O)[O-])c1)c1cccnc1	35.8 kMESF (inactive)
O=C1ON=C(c2ccccc2)/C1=C\c1ccco1	42.7 kMESF (inactive)
Cc1cc(C)c(C)c(S(=O)(=O)ON2C(=O)c3ccccc3C2=O)c1C	40 kMESF (inactive)
CSc1nnc2c3cc(F)ccc3n(C)c2n1	25.3 kMESF (inactive)
O=C(Oc1oc(-c2ccco2)nc1C=Nc1ccccc1)c1ccoc1	44.7 kMESF (inactive)
Cc1ccc(NN2C(=O)C=C(c3ccc(Cl)cc3)C2=O)cc1	44.4 kMESF (inactive)
CC(=O)CSc1ncnc2c1cnn2-c1ccccc1	38.5 kMESF (inactive)
O=C(OCC(=O)N1CCN(C(=O)c2ccco2)CC1)c1cc(-c2ccc(Cl)c(Cl)c2Cl)nc2ccccc12	50.9 kMESF (inactive)
O=C1C=C(Nc2ccc(Cl)cc2)C(=O)N1c1ccc(Cl)cc1	37.8 kMESF (inactive)
COc1cc(NC(=O)c2cccc(C)c2)ccc1NC(=O)c1cc2ccccc2o1	44.2 kMESF (inactive)
Cc1cc(C)c2c(c1)/C(=C/C(=O)c1ccc(Br)s1)C(=O)N2	42.9 kMESF (inactive)
COc1ccc2c(c1)S/C(=C\C(=O)c1ccncc1)N2C	17.8 kMESF (inactive)
Cc1ccsc1/C=N/Nc1ncc(Cl)cc1Cl	36 kMESF (inactive)
O=C(Nc1cccc(C(F)(F)F)c1)Oc1ccc(Cl)c2cccnc12	31.6 kMESF (inactive)
N=C1/C(=C\c2coc3ccccc3c2=O)C(=O)N=C2SC(c3ccncc3)=NN12	44.7 kMESF (inactive)
N/C(=N\OC(=O)c1cccc(Br)c1)c1ccccc1	21.7 kMESF (inactive)
O=C1ON=C(c2ccc(Cl)cc2)/C1=C/c1ccc(O)cc1	23.3 kMESF (inactive)
N/C(=N\OC(=O)c1ccccc1Cl)c1ccc(Cl)cc1	25.7 kMESF (inactive)
COc1cccc2c(=O)c(C(=O)NCc3cccs3)c[nH]c12	35.4 kMESF (inactive)
